17 molecules from US4775692A, “2,5,6,7-tetranor-4,8-inter-m-phenylene PGI2 derivatives” (Toray Industries, Inc., priority 1986, dated 1988) can be followed below.

Values after ≈ are worked out from the molar mass of the structure shown. Read-outs that look alike come from different tables or passages of the source.

For experiment [1], the system named is blood pressure of the carotid. The experiment is described as follows: Hypotensive effect (carotid blood pressure, anesthetized rat). Conditions: chloralose-anesthetized Wistar male rat, injected via catheter connected to femoral artery; read-out: Hypotensive effect ED25 (dose reducing blood pressure by 25 mmHg). In kind it is in vivo. Here is the method: A catheter was inserted to a carotid of the Wistar male rat under chloralose anesthesia. Another end of the catheter was connected to a polygraph with a pressure-transducer to detect a blood pressure of the carotid. The compound was injected via catheter connected to a femoral artery. The dose of the compound which may reduce the blood pressure in an amount of 25 mmHg was designated as ED25.

Experiment [2] deals with gastric acid secretion. In words: Inhibiting effect of gastric acid secretion, pylorus-ligated rat (Shay). In kind it is in vivo. Conditions: pylorus ligation, injected into duodenum, 5 hours. Here is the method:
(§1) Inhibiting effect of gastric acid secretion
Under anesthesia by ether, the abdomen of the rat was incised in its median and a pylorus was ligated with silk thread according to Shay (Gastroenterology 5, 43 (1945)). Simultaneously, the compound was injected into a duodenum of the rat and then the incision was closed.
Five hours later, the median-incision of the abdomen was again performed and the esophargus was ligated and then the whole stomach was removed.
The stomach was cut along a greater curvature and the contents thereof was transferred into a graduated centrifuge tube. After centrifugation at 3,000 rpm for 10 min., a volume of a gastric juice was measured and a part of its supernatant was titrated to pH 7 with 0.1N NaOH using a pH-stat (Radio meter).
The mean dose of the compounds which may reduce the volume of gastric juice (ml) and acidity (mEq/ml) of a group of five animals to 50% of that of the controls were designated respectively as ED50.

Experiment [3] has as its system gastric acid secretion. The experiment is described as follows: Inhibiting effect of gastric acid secretion, perfused stomach, pentagastrin-stimulated (Ghosh & Schild). In kind it is in vivo, male SD rat. Conditions: urethane-anesthetized SD rat, pentagastrin 0.05 μg/kg/min, injected through femoral vein; ratio of area index to that of PGE2. Here is the method:
as §1
A male SD rat was incised in the abdomen under anesthesia by urethane and the lumen of a stomach was perfused with a physiolosical saline solution through a double-cannula inserted into a lumen of the stomach. A pH of a draining gastric acid was monitored using a pH-meter (M. Ghosh, H. Schild, Br. J. Pharmacol. 13, 54 (1958)). The secretion of gastric acid was stimulated by a continuous infusion of the pentagastrin at a rate of 0.05 μg/kg/min. When the pH of gastric acid became stable value of about 4, the compound was injected through a femoral vein. As an index of the inhibiting effect of gastric acid secretion by the compound was calculated from the area surrounded by the curve drawn by the time course of the pH of gastric acid, from the point increase by the injection of the compound and to the point it came back to baseline. The index thus obtained was compared to that of PGE2 and a ratio therebetween was shown in Table 3, as a relative effect of the compound.

In experiment [4] the test system is platelet aggregation. In words: Inhibiting effect of platelet aggregation (ADP-induced, human platelet-rich plasma). Conditions: human PRP, compound added one minute before ADP. In kind it is cell-based. Here is the method:
Inhibiting effect of platelet aggregation
The blood taken from a human median cubital vein was centrifuged at 800 rpm for 10 min. and a supernatant thereof was used as a platelet-rich plasma (PRP). An aliquot of PRP thus obtained was put into a small tube, to which […] (ADP) was added to induce platelet aggregation. The extent of aggregation was determined by detecting a change in turbidity of the aliquot by an apparatus for measuring platelet aggregation (Rika-Denki, Tokyo). The compound was added one minute before the addition of ADP. The concentration of the compound which may reduce the platelet aggregation, 50% of the control was designated as IC50.

Experiment [5] deals with corpus of stomach. The experiment is described as follows: Gastric cytoprotection effect (lesion length / ulcer index after oral 0.2N NaOH). It is filed as in vivo. Conditions: 1 h, 30 min before oral 0.2N NaOH, lesion measured one hour later, read-out: Gastric cytoprotection effect ED50 (dose reducing the sore to 50% of control). The source says:
Gastric cytoprotection effect
Gastric cytoprotection effect was studied according to the method by A. Robert (Gastroenterology, 77(3), 443, (1979)). Thirty min. after oral administration of the compound according to the invention, 0.2N NaOH was orally applied to the animals.
One hour later, the animals were killed under anesthesia by chloroform. The stomach was removed and fixed in a solution of 5% formalin. After fixation, the stomach was cut along the greater curvature. A total length of the lesion appearing on the corpus of stomach was then measured and served as an ulcer index.
The dose of the compound which may reduce the sore to 50% of that of the control was designated as ED50.
The gastric cytoprotection effects of the compounds according to the invention, which is thus represented by ED50, are summarized in Table 1.

[6] abbreviates: acidity (mEq/ml) to 50% of controls, read-out: Inhibiting effect of gastric acid secretion ED50, Acidity.
[7] abbreviates: volume (ml) to 50% of controls, read-out: Inhibiting effect of gastric acid secretion ED50, Volume of the gastric juice.

For orientation: ED50 means the midpoint of the dose-response relation. A word on the IC50: it is the concentration needed to halve the response being measured. A lower IC50 goes with higher potency. `CCCCCC[C@H](O)/C=C/[C@@H]1[C@H]2c3cccc(OCC(=O)O)c3O[C@H]2C[C@H]1O` (relative stereo) [Compound 160, 20a-Homo-2,5,6,7-tetranor-4-oxa-4,8-inter-m-phenylene PGI2]: the ED (25 mmHg) in experiment [1] is 0.23 µg/kg. Moreover, the ED50 amounted to 450 µg/kg in experiment [2] (setting [6]) and 97 µg/kg in experiment [2] (setting [7]). Also, the “Inhibiting effect of gastric acid secretion, Relative effect (PGE2 = 1)” value (“Inhibiting effect … Relative effect (PGE2 = 1)” for short) in experiment [3] is on record as 13. In experiment [4], this molecule showed an IC50 of 0.41 ng/mL (≈ 1.05 nM).
Turning to `CC(C)[C@H](O)/C=C/[C@@H]1[C@H]2c3cccc(OCC(=O)O)c3O[C@H]2C[C@H]1O` (relative stereo) [Compound 164, 16-Methyl-2,5,6,7,18,19,20-heptanor-4-oxa-4,8-inter-m-phenylene PGI2], the ED50 in experiment [2] (setting [6]) was found to be 890 µg/kg; in experiment [2] (setting [7]), 1340 µg/kg; in experiment [5], 9.6 µg/kg. Besides, the “Inhibiting effect … Relative effect (PGE2 = 1)” value in experiment [3] turned out to be 12. In experiment [4], half-maximal inhibition (IC50) was put at 1.35 ng/mL (≈ 3.87 nM).
For the molecule `CC(C)(C)[C@H](O)/C=C/[C@@H]1[C@H]2c3cccc(OCC(=O)O)c3O[C@H]2C[C@H]1O` (relative stereo) [Compound 168, 16,16-Dimethyl-2,5,6,7,18,19,20-heptanor-4-oxa-4,8-inter-m-phenylene PGI2], the ED (25 mmHg) in experiment [1] was found to be 0.49 µg/kg. Besides, the “Inhibiting effect … Relative effect (PGE2 = 1)” value in experiment [3] is reported as 3.5. This molecule also returned an IC50 in experiment [4] of 1.54 ng/mL (≈ 4.25 nM). Also, in experiment [5], the ED50 worked out at 30.5 µg/kg.
With `CCCC(C)(C)[C@H](O)/C=C/[C@@H]1[C@H]2c3cccc(OCC(=O)O)c3O[C@H]2C[C@H]1O` (relative stereo) [Compound 176, 16,16-Dimethyl-2,5,6,7,20-pentanor-4-oxa-4,8-inter-m-phenylene PGI2], in experiment [1], the ED (25 mmHg) came out at 0.69 µg/kg. Besides, the “Inhibiting effect … Relative effect (PGE2 = 1)” value in experiment [3] stood at 48. In experiment [5], the 50% effective dose (ED50) worked out at 4.1 µg/kg.
Turning to `CCCCC(C)(C)[C@H](O)/C=C/[C@@H]1[C@H]2c3cccc(OCC(=O)O)c3O[C@H]2C[C@H]1O` (relative stereo) [Compound 180, 16,16-Dimethyl-2,5,6,7-tetranor-4-oxa-4,8-inter-m-phenylene PGI2], the ED (25 mmHg) in experiment [1] came out at 0.69 µg/kg. For the same molecule, the ED50 in experiment [2] (setting [6]) amounted to 1780 µg/kg; in experiment [2] (setting [7]), 510 µg/kg; in experiment [5], 2.9 µg/kg. Also, in experiment [3], the “Inhibiting effect … Relative effect (PGE2 = 1)” value turned out to be 72.
Take `CC(C)C(C)(C)[C@H](O)/C=C/[C@@H]1[C@H]2c3cccc(OCC(=O)O)c3O[C@H]2C[C@H]1O` (relative stereo) [Compound 196, 16,16,17-Trimethyl-2,5,6,7,19,20-hexanor-4-oxa-4,8 inter-m-phenylene PGI2]: the ED50 in experiment [5] amounted to 150 µg/kg.
Turning to `CC(C)(C1CCCCC1)[C@H](O)/C=C/[C@@H]1[C@H]2c3cccc(OCC(=O)O)c3O[C@H]2C[C@H]1O` (relative stereo) [Compound 248, 16-cyclohexyl-16-methyl-2,5,6,7,18,19,20-heptanor-4-oxa-4,8-inter-m-phenylene PGI2], the ED (25 mmHg) in experiment [1] amounted to 11 µg/kg. For the same molecule, the “Inhibiting effect … Relative effect (PGE2 = 1)” value in experiment [3] stood at 13. The ED50 in experiment [5] stood at 31.1 µg/kg.
For `CC(C)(CC1CCCCC1)[C@H](O)/C=C/[C@@H]1[C@H]2c3cccc(OCC(=O)O)c3O[C@H]2C[C@H]1O` (relative stereo) [Compound 252, 17-cyclohexyl-16,16-dimethyl-2,5,6,7,18,19,20-heptanor-4-oxa-4,8-inter-m-phenylene PGI2] the same measures were 5.6 µg/kg, 13 and 6.5 µg/kg.
For the molecule `CC(C)(c1ccccc1)[C@H](O)/C=C/[C@@H]1[C@H]2c3cccc(OCC(=O)O)c3O[C@H]2C[C@H]1O` (relative stereo) [Compound 293, 16-methyl-16-phenyl-2,5,6,7,18,19,20-heptanor-4-oxa-4,8-inter-m-phenylene PGI2], in experiment [1], the ED (25 mmHg) was 46 µg/kg. Moreover, the “Inhibiting effect … Relative effect (PGE2 = 1)” value in experiment [3] came out at 4.8.
Turning to `CC(C)(Cc1ccccc1)[C@H](O)/C=C/[C@@H]1[C@H]2c3cccc(OCC(=O)O)c3O[C@H]2C[C@H]1O` (relative stereo) [Compound 297, 16,16-dimethyl-17-phenyl-2,5,6,7,18,19,20-heptanor-4-oxa-4,8-inter-m-phenylene PGI2], the ED (25 mmHg) in experiment [1] was determined as 0.34 µg/kg. Moreover, the “Inhibiting effect … Relative effect (PGE2 = 1)” value in experiment [3] was determined as 75. This molecule also registered an IC50 in experiment [4] of 13 ng/mL (≈ 29.6 nM).
Consider `COCC(C)(C)[C@H](O)/C=C/[C@@H]1[C@H]2c3cccc(OCC(=O)O)c3O[C@H]2C[C@H]1O` (relative stereo) [Compound 301, 16,16-Dimethyl-2,5,6,7,20-pentanor-4,18-dioxa-4,8-inter-m-phenylene PGI2], for which the ED (25 mmHg) in experiment [1] stood at 0.36 µg/kg. In addition, the “Inhibiting effect … Relative effect (PGE2 = 1)” value in experiment [3] worked out at 16. For the same molecule, the ED50 in experiment [5] worked out at 38.5 µg/kg.
Take `O=C(O)COc1cccc2c1O[C@H]1C[C@@H](O)[C@H](/C=C/[C@@H](O)COc3ccccc3)[C@@H]21` (relative stereo) [Compound 313, 16-Phenoxy-2,5,6,7,17,18,19,20-octanor-4-oxa-4,8-inter-m-phenylene PGI2]: in experiment [1], the ED (25 mmHg) is 2.1 µg/kg. Also, the ED50 in experiment [2] (setting [6]) was 310 µg/kg; in experiment [2] (setting [7]), 420 µg/kg; in experiment [5], 21.1 µg/kg. Besides, the “Inhibiting effect … Relative effect (PGE2 = 1)” value in experiment [3] amounted to 53.
On to `CC(C)(Oc1ccccc1)[C@H](O)/C=C/[C@@H]1[C@H]2c3cccc(OCC(=O)O)c3O[C@H]2C[C@H]1O` (relative stereo) [Compound 317, 16-Methyl-16-phenoxy-2,5,6,7,18,19,20-heptanor-4-oxa-4,8-inter-m-phenylene PGI2], for which the ED (25 mmHg) in experiment [1] amounted to 1.3 µg/kg. For the same molecule, the “Inhibiting effect … Relative effect (PGE2 = 1)” value in experiment [3] is on record as 62. Moreover, the ED50 in experiment [5] is 0.49 µg/kg.
Turning to `CC(C)(Oc1ccccc1)[C@H](O)/C=C/[C@@H]1[C@H]2c3cccc(C#CC(=O)O)c3O[C@H]2C[C@H]1O` (relative stereo) [Compound 371, 16-Methyl-16-phenoxy-2,5,6,7,18,19,20-heptanor-3,3,4,4-tetradehydro-4,8-inter-m-phenylene PGI2], in experiment [1], the ED (25 mmHg) was determined as 2.4 µg/kg. For the same molecule, the ED50 is 4600 µg/kg in experiment [2] (setting [6]), more than 10000 µg/kg in experiment [2] (setting [7]) and 27.9 µg/kg in experiment [5]. In addition, the “Inhibiting effect … Relative effect (PGE2 = 1)” value in experiment [3] came to 8.
Turning to `CCC[C@H](C)C[C@H](O)/C=C/[C@@H]1[C@H]2c3cccc(OCC(=O)O)c3O[C@H]2C[C@H]1O` [Compound 213, 17-(S)-Methyl-2,5,6,7-tetranor-4-oxa-4,8-inter-m-phenylene PGI2], the ED (25 mmHg) in experiment [1] came out at 0.023 µg/kg. In addition, the ED50 in experiment [2] (setting [6]) came to 230 µg/kg; in experiment [2] (setting [7]), 87 µg/kg. In addition, the “Inhibiting effect … Relative effect (PGE2 = 1)” value in experiment [3] is listed as 41. This molecule registered an IC50 in experiment [4] of 0.075 ng/mL (≈ 0.192 nM).
With `CCCC[C@H](C)C[C@H](O)/C=C/[C@@H]1[C@H]2c3cccc(OCC(=O)O)c3O[C@H]2C[C@H]1O` [Compound 218, (17S)-17-Methyl-20a-homo-2,5,6,7-tetranor-4-oxa-4,8-inter-m-phenylene PGI2], the ED (25 mmHg) in experiment [1] came to 0.045 µg/kg. Besides, the IC50 in experiment [4] came to 0.18 ng/mL (≈ 0.445 nM). Further, the ED50 in experiment [5] came to 0.27 µg/kg.
Consider `CCCCC[C@H](O)/C=C/[C@H]1[C@H](O)CC(=O)[C@@H]1C/C=C\CCCC(=O)O` [PGE2, reference compound], for which, in experiment [3], the “Inhibiting effect … Relative effect (PGE2 = 1)” value was found to be 1.
